From ChEMBL document CHEMBL4020808, “Inhibitors of DNA Gyrase-GyrB Subunit and/or Topoisomerase IV-ParE Subunit May Treat Infectious Diseases Caused by Antibiotic-Resistant Bacteria” (2017)
≈ marks a conversion by molar mass, not a printed value.

Each compound was assayed on Enterococcus faecalis (assay: Antimicrobial activity against Enterococcus faecalis ATCC 29212 after 20 hrs by broth microdilution method). Details: ATCC 29212, 20 h.
Format: functional

MIC [µg/mL]	SMILES
0.25 (≈ 0.603 µM)	CCc1[nH]c(C(=O)N[C@@H]2CCN(c3nnc([C@H](C)O)s3)C[C@@H]2OC)nc1Cl
0.25 (≈ 0.583 µM)	CCc1[nH]c(C(=O)N[C@@H]2CCN(c3nnc(C(C)(C)O)s3)C[C@@H]2OC)nc1Cl
0.25 (≈ 0.603 µM)	CCc1[nH]c(C(=O)N[C@@H]2CCN(c3nnc([C@@H](C)O)s3)C[C@@H]2OC)nc1Cl
0.25 (≈ 0.583 µM)	CCO[C@H]1CN(c2nnc(C(C)O)s2)CC[C@H]1NC(=O)c1nc(Cl)c(CC)[nH]1 (some centres undefined)

Each compound was assayed on Clostridioides difficile (assay: Antimicrobial activity against Clostridioides difficile ATCC 43255 under anaerobic condition for 42 to 48 hrs by agar dilution method). Details: not given.
Format: functional

MIC [µg/mL]	SMILES
0.06 (≈ 0.135 µM)	CCc1[nH]c(C(=O)N[C@@H]2CCN(c3nnc([C@@](C)(O)CO)s3)C[C@@H]2OC)nc1Cl
0.125 (≈ 0.301 µM)	CCc1[nH]c(C(=O)N[C@@H]2CCN(c3nnc([C@H](C)O)s3)C[C@@H]2OC)nc1Cl
0.06 (≈ 0.14 µM)	CCc1[nH]c(C(=O)N[C@@H]2CCN(c3nnc(C(C)(C)O)s3)C[C@@H]2OC)nc1Cl
0.06 (≈ 0.145 µM)	CCc1[nH]c(C(=O)N[C@@H]2CCN(c3nnc([C@@H](C)O)s3)C[C@@H]2OC)nc1Cl
0.03 (≈ 0.0699 µM)	CCO[C@H]1CN(c2nnc(C(C)O)s2)CC[C@H]1NC(=O)c1nc(Cl)c(CC)[nH]1 (some centres undefined)
0.125 (≈ 0.29 µM)	CCc1[nH]c(C(=O)N[C@@H]2CCN(c3nnc([C@@H](O)CO)s3)C[C@@H]2OC)nc1Cl

Each compound was assayed on Streptococcus pneumoniae (assay: Antimicrobial activity against Streptococcus pneumoniae ATCC 49619 after 20 hrs by broth microdilution method). Details: ATCC 49619, 20 h.
Format: functional

MIC [µg/mL]	SMILES
0.25 (≈ 0.603 µM)	CCc1[nH]c(C(=O)N[C@@H]2CCN(c3nnc([C@H](C)O)s3)C[C@@H]2OC)nc1Cl
0.25 (≈ 0.583 µM)	CCc1[nH]c(C(=O)N[C@@H]2CCN(c3nnc(C(C)(C)O)s3)C[C@@H]2OC)nc1Cl
0.25 (≈ 0.603 µM)	CCc1[nH]c(C(=O)N[C@@H]2CCN(c3nnc([C@@H](C)O)s3)C[C@@H]2OC)nc1Cl
0.25 (≈ 0.583 µM)	CCO[C@H]1CN(c2nnc(C(C)O)s2)CC[C@H]1NC(=O)c1nc(Cl)c(CC)[nH]1 (some centres undefined)

The compounds below were run on Haemophilus influenzae (assay: Antimicrobial activity against Haemophilus influenzae ATCC 49247 after 20 hrs by broth microdilution method). Details: ATCC 49247, 20 h.
Format: functional

MIC [µg/mL]	SMILES
1 (≈ 2.41 µM)	CCc1[nH]c(C(=O)N[C@@H]2CCN(c3nnc([C@H](C)O)s3)C[C@@H]2OC)nc1Cl
0.5 (≈ 1.17 µM)	CCc1[nH]c(C(=O)N[C@@H]2CCN(c3nnc(C(C)(C)O)s3)C[C@@H]2OC)nc1Cl
1 (≈ 2.41 µM)	CCc1[nH]c(C(=O)N[C@@H]2CCN(c3nnc([C@@H](C)O)s3)C[C@@H]2OC)nc1Cl
2 (≈ 4.66 µM)	CCO[C@H]1CN(c2nnc(C(C)O)s2)CC[C@H]1NC(=O)c1nc(Cl)c(CC)[nH]1 (some centres undefined)

These compounds were tested on Staphylococcus aureus (assay: Antimicrobial activity against Staphylococcus aureus ATCC 29213 after 20 hrs by broth microdilution method). Details: ATCC 29213, 20 h.
Format: functional

MIC [µg/mL]	SMILES
1 (≈ 2.25 µM)	CCc1[nH]c(C(=O)N[C@@H]2CCN(c3nnc([C@@](C)(O)CO)s3)C[C@@H]2OC)nc1Cl
0.5 (≈ 1.21 µM)	CCc1[nH]c(C(=O)N[C@@H]2CCN(c3nnc([C@H](C)O)s3)C[C@@H]2OC)nc1Cl
0.25 (≈ 0.583 µM)	CCc1[nH]c(C(=O)N[C@@H]2CCN(c3nnc(C(C)(C)O)s3)C[C@@H]2OC)nc1Cl
0.5 (≈ 1.21 µM)	CCc1[nH]c(C(=O)N[C@@H]2CCN(c3nnc([C@@H](C)O)s3)C[C@@H]2OC)nc1Cl
0.5 (≈ 1.17 µM)	CCO[C@H]1CN(c2nnc(C(C)O)s2)CC[C@H]1NC(=O)c1nc(Cl)c(CC)[nH]1 (some centres undefined)
4 (≈ 9.28 µM)	CCc1[nH]c(C(=O)N[C@@H]2CCN(c3nnc([C@@H](O)CO)s3)C[C@@H]2OC)nc1Cl
